Experimental data as given in ChEMBL document CHEMBL2413037, “Cembrane diterpenoids from the soft coral Sarcophyton trocheliophorum Marenzeller as a new class of PTP1B inhibitors” (Bioorg Med Chem, 2013).

Tests used:
[1] = system: HL-60; test: Cytotoxicity against human HL60 cells; type: cell-based
[2] = system: A549; test: Cytotoxicity against human A549 cells; type: cell-based
[3] = target: T1, Tyrosine-protein phosphatase non-receptor type 1 (Homo sapiens, UniProt P18031); test: Inhibition of human recombinant PTP1B-mediated pNPP hydrolysis
T1 sequence (P18031 whole entry): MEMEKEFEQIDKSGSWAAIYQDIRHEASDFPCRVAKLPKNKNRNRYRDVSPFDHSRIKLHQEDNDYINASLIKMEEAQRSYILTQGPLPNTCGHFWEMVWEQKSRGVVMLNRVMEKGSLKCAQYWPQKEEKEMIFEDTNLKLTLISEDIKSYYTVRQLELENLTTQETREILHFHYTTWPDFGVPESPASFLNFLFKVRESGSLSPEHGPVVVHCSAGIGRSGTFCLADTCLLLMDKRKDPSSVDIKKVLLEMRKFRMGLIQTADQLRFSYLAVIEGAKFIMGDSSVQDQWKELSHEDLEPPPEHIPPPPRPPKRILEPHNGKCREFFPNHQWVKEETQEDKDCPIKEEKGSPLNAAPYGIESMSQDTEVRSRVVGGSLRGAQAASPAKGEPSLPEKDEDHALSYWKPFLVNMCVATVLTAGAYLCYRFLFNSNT

IC50 [3] [µM] | Structure (SMILES) | Activity [1] | Activity [2]
5.95 | COC(=O)/C1=C\C=C(\C(C)C)CC/C(C)=C/CC/C(C)=C/CC1 | Non-toxic | Non-toxic
≥ 53.1 | COC(=O)/C1=C\CC[C@]2(C)O[C@H]2CC/C(C(=O)OC)=C/C=C(/C(C)C)CC1 | Non-toxic | Non-toxic
≥ 55.2 | COC(=O)/C1=C\C=C(\C(C)C)CC/C(C(=O)O)=C/CC[C@]2(C)O[C@H]2CC1 | Non-toxic | Non-toxic
≥ 50.7 | COC(=O)/C1=C\CC[C@](C)(O)[C@H](O)CC/C(C(=O)OC)=C\C=C(/C(C)C)CC1 | Non-toxic | Non-toxic
≥ 53.4 | CC(=O)O[C@@H]1C/C(C)=C/C/C=C(/C)CC(=O)CC2=C[C@@H](OC2=O)[C@@H]1C(C)C | Non-toxic | Non-toxic
26.6 | C/C1=C\C=C(\C(C)C)CC/C(C)=C/CC/C(C)=C/CC1 | Non-toxic | Non-toxic
≥ 53.1 | CC(=O)O[C@@H]1C/C(C)=C/CCC(C)CC(=O)CC2=C[C@@H](OC2=O)[C@@H]1C(C)C (stereo partly drawn) | Non-toxic | Non-toxic
15.4 | C/C1=C/C=C(/C(C)C)CCC2=CCC[C@](C)(OC2=O)C(=O)CC1 | Non-toxic | Non-toxic
≥ 73.4 | CC(C)=C1C/C=C(\C)CC/C=C(\C)CC/C=C(\C)CC1 | Non-toxic | Non-toxic
27.2 | COC(=O)/C1=C\C=C(\C(C)C)CCC2=CCC[C@](C)(OC2=O)C(=O)CC1 [KETOEMBLIDE] | Non-toxic | Non-toxic
6.33 | COC(=O)/C1=C/C=C(/C(C)C)CCC2=CCC[C@](C)(OC2=O)C(=O)CC1 [SARCRASSIN E] | Non-toxic | Non-toxic
